Assays:
[1] = system: B. subtilis 168; assay: fitness (endpoint OD595 vs no drug) (fraction); higher = more growth
Procedure, shortened: (§1)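 Bacterial growth was followed in 384-well plates seeded at OD595 0.01, with 30 µl per well, or 55 µl for S. pneumoniae, in TSB, LB Lennox or CY at 37 °C. OD595 was read every 30 min for 14 h, and each reading had the first reading subtracted as background. Fitness is the background-corrected optical density at entry into stationary phase divided by the robust mean of the no-drug control wells. This ratio is capped at 1.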

[2] = system: S. pneumoniae D39V; assay: as above
Procedure, shortened: as §1

[3] = system: B. subtilis 168; assay: Bliss interaction score (quartile over a dose matrix) (fitness difference); higher = more antagonism (negative = synergy)
Procedure, shortened: (§2)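 Fitness was derived from optical density at entry into stationary phase, divided by the robust mean of the no-drug wells on the same plate. That reading was taken as OD595, and the ratio was capped at 1. Single-drug fitness was inferred from the combination data. The Bliss score, observed fitness minus the expected product of single-drug fitness, was summarised as quartiles over technical, biological and donor/recipient replicates.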

[4] = system: S. aureus DSM 20231; assay: as above
Procedure, shortened: as §2

[5] = system: S. aureus Newman; assay: as above
Procedure, shortened: as §2

[6] = system: S. pneumoniae D39V; assay: as above
Procedure, shortened: as §2
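Throughout, for Bliss interaction score (quartile over a dose matrix): first quartile when negative (synergy) and third quartile when positive (antagonism).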

CCC[C@@H]1C[C@@H](C(=O)N[C@@H]([C@H]2O[C@H](SC)[C@H](O)[C@@H](O)[C@H]2O)[C@H](C)Cl)N(C)C1 [Clindamycin] + CCC(C)C1C(=O)NC(=C)C(=O)NC(C(=O)NC(CSCC(C(=O)N1)NC(=O)/C(=C/C)/NC(=O)C(C(C)CC)N)C(=O)NC2C(SCC(NC(=O)CNC(=O)C3CCCN3C2=O)C(=O)NC(CCCCN)C(=O)NC4C(SCC(NC(=O)CNC(=O)C(NC(=O)C(NC(=O)C(NC(=O)CNC4=O)C)CC(C)C)CCSC)C(=O)NC(CC(=O)N)C(=O)NC(CCSC)C(=O)NC(CCCCN)C(=O)NC5C(SCC6C(=O)NC(C(=O)NC(CSC(C(C(=O)N6)NC(=O)C(NC5=O)C)C)C(=O)NC(CO)C(=O)NC(C(C)CC)C(=O)NC(CC7=CN=CN7)C(=O)NC(C(C)C)C(=O)NC(=C)C(=O)NC(CCCCN)C(=O)O)CC8=CN=CN8)C)C)C)CC(C)C [Nisin]
fitness, [1], one replicate, main component drawn
Settings | first compound 0.0039 µg/mL | first compound 0.0078 µg/mL | first compound 0.0156 µg/mL | first compound 0.0625 µg/mL | first compound 0.125 µg/mL | first compound 0.25 µg/mL
partner 0.5 µg/mL | 0.985 | 0.875 | 0.858 | 0.559 | 0.461 | 0.402
partner 1 µg/mL | 0.936 | 0.847 | 0.834 | 0.565 | 0.389 | 0.371
partner 1.25 µg/mL | – | – | – | 0.647 | 0.47 | 0.386
partner 1.6 µg/mL | – | – | – | 0.455 | 0.196 | 0.0539
partner 2 µg/mL | 0.855 | 0.771 | 0.742 | 0.261 | 0.25 | 0.0613
partner 2.5 µg/mL | – | – | – | 0.564 | 0.423 | 0.275
partner 3.2 µg/mL | – | – | – | 0.0252 | 0.0383 | 0.0454
partner 4 µg/mL | – | – | – | 0.0334 | 0.0299 | 0.0361
partner 5 µg/mL | – | – | – | 0.171 | 0.0548 | 0.0507
partner 6.4 µg/mL | – | – | – | 0.0392 | 0.0456 | 0.0461
partner 8 µg/mL | – | – | – | 0.0341 | 0.0157 | 0.0269
partner 16 µg/mL | – | – | – | 0.0049 | 0.0089 | 0.0163

[2], main component drawn
Settings | fitness
first compound 0.0125 µg/mL, partner 1.6 µg/mL | 0.0319
first compound 0.0125 µg/mL, partner 3.2 µg/mL | 0.0224
first compound 0.0125 µg/mL, partner 6.4 µg/mL | 0.0205
first compound 0.015 µg/mL, partner 0.4275 µg/mL | 0.923
first compound 0.015 µg/mL, partner 1.71 µg/mL | 0.11
first compound 0.025 µg/mL, partner 1.6 µg/mL | 0.0417
first compound 0.025 µg/mL, partner 3.2 µg/mL | 0.0389
first compound 0.025 µg/mL, partner 6.4 µg/mL | 0.0111
first compound 0.03 µg/mL, partner 0.4275 µg/mL | 0.774
first compound 0.03 µg/mL, partner 1.71 µg/mL | 0.0769
first compound 0.05 µg/mL, partner 1.6 µg/mL | 0.0221
first compound 0.05 µg/mL, partner 3.2 µg/mL | 0.0421
first compound 0.05 µg/mL, partner 6.4 µg/mL | 0.0305
first compound 0.06 µg/mL, partner 0.4275 µg/mL | 0.645
first compound 0.06 µg/mL, partner 0.855 µg/mL | 0.252
first compound 0.06 µg/mL, partner 1.71 µg/mL | 0.0778

main component drawn
Settings | Bliss interaction score
[3] | 0.0605
[4] | 0.0292
[5] | 0.0857
[6] | -0.0351

CCC[C@@H]1C[C@@H](C(=O)N[C@@H]([C@H]2O[C@H](SC)[C@H](O)[C@@H](O)[C@H]2O)[C@H](C)Cl)N(C)C1 [Clindamycin] + CN(C)C(=O)C(CCN1CCC(O)(c2ccc(Cl)cc2)CC1)(c1ccccc1)c1ccccc1 [Loperamide]
fitness, one replicate
Settings | first compound 0.0039 µg/mL | first compound 0.0078 µg/mL | first compound 0.015 µg/mL | first compound 0.0156 µg/mL | first compound 0.03 µg/mL | first compound 0.06 µg/mL
[1], partner 25 µg/mL | 0.924 | 0.814 | – | 0.793 | – | –
[1], partner 50 µg/mL | 0.862 | 0.754 | – | 0.595 | – | –
[1], partner 100 µg/mL | 0.53 | 0.385 | – | 0.259 | – | –
[2], partner 68.57 µg/mL | – | – | 0.982 | – | 0.896 | 0.725

Settings | fitness
[1], first compound 0.0625 µg/mL, partner 25 µg/mL | 0.577
[1], first compound 0.0625 µg/mL, partner 50 µg/mL | 0.0289
[1], first compound 0.0625 µg/mL, partner 100 µg/mL | 0.0293
[1], first compound 0.125 µg/mL, partner 25 µg/mL | 0.418
[1], first compound 0.125 µg/mL, partner 50 µg/mL | 0.0399
[1], first compound 0.125 µg/mL, partner 100 µg/mL | 0.0277
[1], first compound 0.25 µg/mL, partner 25 µg/mL | 0.254
[1], first compound 0.25 µg/mL, partner 50 µg/mL | 0.0473
[1], first compound 0.25 µg/mL, partner 100 µg/mL | 0.0404
[2], first compound 0.0125 µg/mL, partner 20 µg/mL | 0.82
[2], first compound 0.0125 µg/mL, partner 40 µg/mL | 0.859
[2], first compound 0.0125 µg/mL, partner 80 µg/mL | 0.858
[2], first compound 0.015 µg/mL, partner 17.14 µg/mL | 0.938
[2], first compound 0.015 µg/mL, partner 34.28 µg/mL | 0.946
[2], first compound 0.025 µg/mL, partner 20 µg/mL | 0.614
[2], first compound 0.025 µg/mL, partner 40 µg/mL | 0.62
[2], first compound 0.025 µg/mL, partner 80 µg/mL | 0.597
[2], first compound 0.03 µg/mL, partner 17.14 µg/mL | 0.778
[2], first compound 0.03 µg/mL, partner 34.28 µg/mL | 0.769
[2], first compound 0.05 µg/mL, partner 20 µg/mL | 0.316
[2], first compound 0.05 µg/mL, partner 40 µg/mL | 0.329
[2], first compound 0.05 µg/mL, partner 80 µg/mL | 0.285
[2], first compound 0.06 µg/mL, partner 17.14 µg/mL | 0.688
[2], first compound 0.06 µg/mL, partner 34.28 µg/mL | 0.639

Settings | Bliss interaction score
[3] | 0.149
[4] | 0.0957
[5] | -0.0895
[6] | 0.2

Reference: the supplement of paper PMC10627819
